Measurements taken from ChEMBL document CHEMBL3244015, “Synthesis and biological evaluation of a tetrahydroisoquinoline derivative possessing selective beta2-adrenergic agonist activity” (J Med Chem, 1977).
Active and inactive are the calls of the source. The calls are words filed in the database; no cut-off is given here.

Legend:
[1] = biological target: Beta-1 adrenergic receptor (Cavia porcellus) (UniProt B0FL73); experiment: Agonist activity at beta-1 adrenergic receptor in isolated guinea pig atrial preparation assessed as induction of chronotrophic response at 10^-9 to 10^-3 M; conditions: Cardiac atrium
[2] = biological target: Beta-2 adrenergic receptor (Cavia porcellus) (UniProt Q8K4Z4); experiment: Agonist activity at beta-2 adrenergic receptor in isolated guinea pig trachea assessed as induction of relaxation of tracheal muscle at 10^-9 to 10^-3 M
[3] = biological target: Beta-2 adrenergic receptor (Cavia porcellus) (UniProt Q8K4Z4); experiment: Agonist activity at beta-2 adrenergic receptor in isolated guinea pig trachea assessed as induction of relaxation of tracheal muscle

Chain of Beta-1 adrenergic receptor (Cavia porcellus) (B0FL73 1-467): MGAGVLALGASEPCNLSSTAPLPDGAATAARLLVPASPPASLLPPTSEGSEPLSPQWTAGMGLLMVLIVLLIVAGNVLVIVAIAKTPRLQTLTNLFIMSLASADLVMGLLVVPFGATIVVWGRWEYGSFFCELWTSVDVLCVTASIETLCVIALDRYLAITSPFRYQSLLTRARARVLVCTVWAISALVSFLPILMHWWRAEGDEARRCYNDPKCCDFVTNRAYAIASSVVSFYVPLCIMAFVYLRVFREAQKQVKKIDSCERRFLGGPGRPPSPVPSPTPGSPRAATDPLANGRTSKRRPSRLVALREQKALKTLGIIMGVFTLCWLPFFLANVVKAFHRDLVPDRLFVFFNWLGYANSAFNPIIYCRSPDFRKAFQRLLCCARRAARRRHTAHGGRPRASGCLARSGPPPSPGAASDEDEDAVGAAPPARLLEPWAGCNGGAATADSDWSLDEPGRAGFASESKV
Chain of Beta-2 adrenergic receptor (Cavia porcellus) (Q8K4Z4 whole entry, looked up): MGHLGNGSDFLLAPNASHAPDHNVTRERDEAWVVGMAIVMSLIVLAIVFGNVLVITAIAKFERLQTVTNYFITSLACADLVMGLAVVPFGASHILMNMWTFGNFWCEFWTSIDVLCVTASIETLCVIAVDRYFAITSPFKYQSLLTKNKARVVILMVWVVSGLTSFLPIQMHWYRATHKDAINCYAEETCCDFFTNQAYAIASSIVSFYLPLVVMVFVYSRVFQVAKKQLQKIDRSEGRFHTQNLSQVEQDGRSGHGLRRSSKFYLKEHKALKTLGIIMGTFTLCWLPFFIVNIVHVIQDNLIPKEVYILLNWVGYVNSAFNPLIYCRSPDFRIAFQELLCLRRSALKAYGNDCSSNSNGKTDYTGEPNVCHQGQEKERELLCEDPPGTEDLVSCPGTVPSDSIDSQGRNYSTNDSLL

| Activity [1] | Activity [2] | ED50 [3] [×10⁻⁵ M] | SMILES |
| --- | --- | --- | --- |
| Active | Active |  | COc1cc(CC(CN)c2ccc(O)c(O)c2)cc(OC)c1OC (centres undefined) |
| inactive |  | 1 | COc1cc(CC2CNCc3cc(O)c(O)cc32)cc(OC)c1OC (centres undefined) |
